Measurements taken from patent publication US6730667B2, “Iontophoresis disc pain blocker” (priority 2001, dated 2004).

Tested on: overactive nerve fibers
Assay: Iontophoretic delivery, practical patient experience
Format: in vivo, human
Settings: ketamine at 2 to 4% or higher, clonidine at 0.2 to 0.4%, unbuffered; positive polarity
Description: Once the desired nerve or nerves are identified, a preselected composition of pharmaceuticals 14 is prepared for an administration step 16. Administration may be topical, by methods including gel 18 or spray 20. Iontophoresis is a preferred method. The composition is applied to a patch 22 for iontophoretic administration. Suitable patch structures include both single and multi-layered gel matrix discs. For example, a patch may be arranged with one or more layers of pH buffered electrolytes between drug layers. Ionotphoresis 24 delivers the drugs by application of tiny unipolar or switchable bipolar micro amperage current to the gel disc over the next 24 to 36 plus hours, producing blockade to the excessive nerve firing.
These are ketamine, which is an NMDA receptor blocker, at 2 to 4% or higher, and clonidine, which is an […], at 0.2 to 0.4% concentration, unbuffered. Both have positive polarity, and are positive charged. Selection of positive polarity would push the drug along the pathway of least resistance, finding the involved overactive nerve fibers; and pain blockade would occur.

SMILES	suitability for delivery by iontophoresis
Clc1cccc(Cl)c1N=C1NCCN1 [clonidine]	work well
CNC1(c2ccccc2Cl)CCCCC1=O (centres unmarked) [ketamine]	work well
